Results taken from patent publication US6001810A, “Methods for treating retroviral infection” (Eli Lilly and Company, priority 1990, dated 1999).
In brackets after ≈: the same amount, converted by molar mass. Several values for one entry are separate records, joined by “and”; a condition that tells them apart may be missing. Identical values can stand only once. Values belong to the molecule of their own block, whether it stands above or below them. Non-standard residues stand in square brackets, D forms with d. Residues, ends and D or L forms follow the SMILES beside them. Phe(4-NH2) = Nc1ccc(C[C@H](N)C(=O)O)cc1; Sta = CC(C)C[C@H](N)[C@@H](O)CC(=O)O

Experiments:
[1] = system: HTLV-IIIB strain of HIV-1; assay: Inhibition of HIV-1 cytopathic effect in CEM cells (XTT); format: cell-based; details: for IC25 (concentration that reduced CPE by 25%): Table V first column
Description: (§1) Quantitative evaluation of the viral inhibition were performed on the T-cell lymphoblastoid cell lines MT-2 (Harada et al., 1985, Science 229:563-566) and CEM (Nara and Fischinger, 1988, Nature 332:469-470). The cells were infected with the HTLV-IIIB strain of HIV-1 from the supernatant fluid of infected human T-lymphocyte cell line H9 (Popovic, M. et al., 1984, Science 224:497-500). Each of these three cell lines are publicly available from the National Institutes of Health (NIH) AIDS Research and Reference Reagent Program. The H9/HTLC-IIIB cell line is available under catalogue number 231, while CEM cell line is available under catalogue number 117 and the MT-2 cell line is available under the catalogue number 237. MT-2 and CEM cells were grown in RPMI 1640 medium supplemented with 10% (v/v) fetal calf serum, 100 U/ml penicillin, 100 μg/ml streptomycin and 25 mM HEPEs buffer. H9 cells were grown in the same medium except 20% fetal calf serum was used. The peptides were diluted in the medium used for MT-2 and CEM cells. Cell cultures were maintained in disposable tissue culture labware at 37° C. in a humidified atmosphere of 5% CO2 in air.
(§2) The inhibitors were dissolved in DMSO at 40 mg/ml or sterile water at 2 mg/ml, then dilutions were made in medium. The dilutions were added to micro-titer plates in 100 μl/well aliquots so that the high drug concentration for each screen was 100 μg/ml after the addition of cells to the well.
(§3) Susceptible MT-2 and CEM cells were grown and the cell population determined by a trypan blue viable cell count. The desired total number of cells were placed in a sterile, disposable 50 ml conical centrifuge tube and virus was added to give an MOI (Multiplicity of Infection) of 0.03 TCID50 /cell (Tissue Culture Infectious Dose) on MT-2 cells and approximately 0.12 TCID50 /cell on CEM cells. Fresh medium was added to adjust the cell density to 1×10^5 cells/ml, then the virus-cell suspension was incubated at 37° C. for 1 to 2 hours until plating. Uninfected controls cell were prepared in the same manner but without the addition of virus. Infected and uninfected cells were added to plates in 100 μl/well aliquots to give a starting cell number of 1×10^4 cells/well. The plates were incubated for seven days in a humidified atmosphere of 5% CO2 in air.
Reagents for colorimetric evaluation of cell viability were prepared by mixing the tetrazolium reagent, XTT, and phenazine methosulfate (PMS) to final concentrations of 200 μg/ml and 0.02 mM, respectively. […] The plates were read with the sealers in place in a Vmax Plate Reader® at 450 nm and 650 nm. The cytopathic effect (CPE) and percentage of cell viability were then calculated. […]

[2] = system: MLV; assay: MLV XC Plaque Reduction Assay - Virus Yield; format: cell-based, Murine Leukemia Virus
Description: (§4) About 3 to 5×10^3 SC-1 cells (available from the American Type Culture Collection, Rockville, Md. under the accession number ATCC CRL-1404) per well of a 96-well microtiter plate were seeded in minimal essential medium supplemented with 5% fetal bovine serum, penicillin (150 U/ml), Streptomycin (150 μg/ml) and polybrene (2 μg/ml), then infected with Mo-MuLV (Multiplicity of Infection=10 PFU/cell) the next day. The virus was allowed to adsorb to the cells for 1 hour, then medium containing serial dilutions of P-7, P-9 or medium alone was added to the cells. Pepstatin A ([…]-Val-Val-Statine-Ala-Statine) and AZT (3'-Azido-3'-deoxythymidine) were also added as controls. After incubation for 5 days (when cells were confluent) the SC-1 cells were UV irradiated for 10 seconds and 5 to 8×10^4 XC cells (ATCC CCL-165) per well were added. Generally, about two additional days of incubation were required to obtain full virus-induced cytopathic effect.
The assay described above was also preferred to determine the virus yield. In this experiment, the supernatents were removed from the SC-1 cells four days after infection and tested for MLV titers, using the XC-plaque assay as previously described.

[3] = system: Mo-MuLV; assay: Moloney Murine Leukemia Virus Assay, CPE inhibition in SC-1/XC cells; format: cell-based; parameters: key: 4+(>90%); 3+(>60%); 2+(>40%); 1+(>20%); -(Negative)
Description: as §4

[4] = system: complex of Friend's Spleen-Forcus Virus (Fr. SFFV) and Friend's Murine Leukemia Virus (F. MLV); assay: In vivo inhibition of Friend Virus Complex in DBA/2 mice; parameters: Spleen / Inhibition % (spleen): dose or concentration left out as unconfirmed; details: individual infected DBA/2 mice
Description: Formulations of peptides P-9 and P-7 were prepared for injection into DBA/2 mice. The formulations were prepared by dissolving the purified peptides in Emulphor™ EL620 which was purchased from the GAF Chemical Corporation, 1361 Alps Row, Wayne, N.J., 07470. The drugs were injected intraperitoneally one hour before the mice were infected with a complex of Friend's Spleen-Forcus Virus (Fr. SFFV) and Friend's Murine Leukemia Virus (F. MLV). These viruses ordinarily cause polycythermia (elevated levels of red blood cells) and splenomegaly (enlargement of spleen) within two to three week post-infection. The mice were injected twice daily with the inhibitor formulation for twenty days after the infection.
*Drugs were dissolved in Emulphor ™, injected IP one hour before
infection, then twice daily for 20 days.
^a Titers of Fr.MLV in the spleens (supernatents of 10% homogenates)
were determined by XC plaque assay.

[5] = system: CEM cells; format: cell-based
Description: as §1, §2, §3
Reagents for colorimetric evaluation of cell viability were prepared by mixing the tetrazolium reagent, XTT, and phenazine methosulfate (PMS) to final concentrations of 200 μg/ml and 0.02 mM, respectively. Fifty microliters of the XTT-PMS solution was added to each well of the microtiter plates, then the plates were incubated in the CO2 incubator for another four hours. The lids were removed from the plates and replaced with adhesive plate sealers. The plates were read with the sealers in place in a Vmax Plate Reader® at 450 nm and 650 nm. The cytopathic effect (CPE) and percentage of cell viability were then calculated.
The activity and cytotoxicity of several other peptides were also assayed in CEM cells using the same procedure as described above. These assays also included toxicity and activity levels of both 25% and 50%.

[6] = system: MT-2 cells; format: cell-based
Description: as §1, §2, §3
(§5) Reagents for colorimetric evaluation of cell viability were prepared by mixing the tetrazolium reagent, XTT, and phenazine methosulfate (PMS) to final concentrations of 200 μg/ml and 0.02 mM, respectively. […] The plates were read with the sealers in place in a Vmax Plate Reader® at 450 nm and 650 nm. The cytopathic effect (CPE) and percentage of cell viability were then calculated.

[7] = system: HTLV-IIIB strain of HIV-1; assay: Inhibition of HIV-1 cytopathic effect in MT-2 cells (XTT); format: cell-based; details: 7 days
Description: as §1, with “H9 cells were grown in the same medium except 20% fetal calf serum was used. The peptides were diluted in the medium used for MT-2 and CEM cells. Cell cultures were maintained in disposable tissue culture labware at 37° C. in a humidified atmosphere of 5% CO2 in air.” left out
Susceptible MT-2 and CEM cells were grown and the cell population determined by a trypan blue viable cell count. […]
as §5

IC50 ([1]; Human immunodeficiency virus 1, IIIB, CCRF-CEM, Table V, read-out: IC50 (concentration that reduced CPE by 50%)): < 0.0032 µg/mL
IC25 (Table V) [5]: > 1.0 µg/mL
SMILES: Cc1cn([C@H]2C[C@H](N=[N+]=[N-])[C@@H](CO)O2)c(=O)[nH]c1=O [AZT, 3'-Azido-3'-deoxythymidine]
IC25 (concentration that reduced CPE by 25%) [1]: < 0.0032 µg/mL
Maximum inhibition reached (CPE) ([1]; inhibition decreased as drug concentration increased): 60%
Yield ([2]; 3.125 ng/ml): 2.9 × 10^4 PFU/ML
Yield ([2]; 6.25 ng/ml): 80 PFU/ML
Yield ([2]; 12.5 ng/ml): < 10 PFU/ML
% Inhibition (virus yield) ([2]; 25 ag/ml): > 99%
Yield ([2]; 25 ag/ml): < 10 PFU/ML
inhibition at 0.003125 µg/mL ([2]; Murine leukemia virus, 3.125 ng/ml): 98%
inhibition at 0.00625 µg/mL ([2]; Murine leukemia virus, 6.25 ng/ml): > 99%
inhibition at 0.0125 µg/mL ([2]; Murine leukemia virus, 12.5 ng/ml): > 99%
CPE inhibition score ([3]; .0004 μg/ml): -
CPE inhibition score ([3]; .0008 μg/ml): -
CPE inhibition score ([3]; .003 μg/ml): 2+ (2+(>40%))
CPE inhibition score ([3]; .006 μg/ml): 3+ (3+(>60%))
CPE inhibition score ([3]; .012 μg/ml): 4+ (4+(>90%))
CPE inhibition score ([3]; .015 μg/ml): 1+ (1+(>20%))
CPE inhibition score ([3]; .025 μg/ml): 4+ (4+(>90%))
CPE inhibition score ([3]; .05 μg/ml): 4+ (4+(>90%))
CPE inhibition score ([3]; .1 μg/ml): 4+ (4+(>90%))
CPE inhibition score ([3]; .2 μg/ml): 4+ (4+(>90%))
Inhibiton % (virus titer) ([4]; 100 pg IP twice daily for 20 days): > 99% and 95%
Virus Titer (Fr.MLV in the spleens, XC plaque assay) ([4]; 100 pg IP twice daily for 20 days, supernatents of 10% homogenates): 500 PFU/ml and 20,000 PFU/ml
Spleen ([4]; IP one hour before infection, then twice daily for 20 days): 0.17 gm and 0.21 gm
Inhibition % (spleen) ([4]; IP twice daily for 20 days): 85% and 81%
TC50 (concentration that reduced cell viability by 50%) [5]: > 1.0 µg/mL

SMILES: CC(C)C[C@H](NC(=O)C[C@H](O)[C@H](CC(C)C)NC(=O)[C@@H](NC(=O)[C@H](Cc1ccccc1)NC(=O)[C@@H]1CCCN1C(=O)[C@H](Cc1ccc(N)cc1)NC(=O)[C@@H]1CCCN1)C(C)C)C(=O)N[C@@H](Cc1ccccc1)C(=O)N[C@@H](Cc1ccc(N)cc1)C(N)=O [P-1, H-Pro paF Pro Phe Val Statine Leu Phe paF NH2] (H-P[Phe(4-NH2)]PFV[Sta]LF[Phe(4-NH2)]-NH2)
MTC50 (minimum cytotoxic drug concentration that reduces cell viability to 50%) [6]: > 100 µg/mL
MTC50 (minimum cytotoxic drug concentration that reduces cell viability to 50%) [5]: > 100 µg/mL

IC25 (Table V) [5]: 0.04 µg/mL (≈ 0.189 µM)
SMILES: Nc1ccn([C@H]2CC[C@@H](CO)O2)c(=O)n1 [DDC, 2', 3Dideoxycytidine]
IC25 (concentration that reduced CPE by 25%) [1]: 0.0032 µg/mL (≈ 0.0152 µM)
MTC50 (minimum cytotoxic drug concentration that reduces cell viability to 50%) [6]: > 10 µg/mL
ID50 (minimum drug concentration that inhibited CPE by 50%) [7]: 0.11 µg/mL and 0.10 µg/mL
TC50 (concentration that reduced cell viability by 50%) [5]: 0.8 µg/mL (≈ 3.79 µM)
